Laboratory results as given in PubChem BioAssay (NCI).
Values joined by “and” are separate entries in the source; they are usually repeats but may differ in a detail not shown here. Equal values may be shown once.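 All cell lines were grown in 96-well plates and treated with compound for 48 hours. Here, GI50 denotes the concentration required for 50% inhibition of growth. Definition used: TGI = concentration required for complete inhibition of growth.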

What was measured:
Test in all cases: NCI-60 cell line screen, 48 h
KM20L2 colon = system: KM20L2 colon
SNB-78 CNS = system: SNB-78 CNS
LXFL 529 NSCLC = system: LXFL 529 NSCLC
RXF-631 renal = system: RXF-631 renal
DLD-1 colon = system: DLD-1 colon
DMS 114 small cell lung = system: DMS 114 small cell lung
XF 498 CNS = system: XF 498 CNS
HOP-18 NSCLC = system: HOP-18 NSCLC
MDA-N = system: MDA-N

| SMILES | TGI (KM20L2 colon) | TGI (SNB-78 CNS) | TGI (LXFL 529 NSCLC) | TGI (RXF-631 renal) | TGI (DLD-1 colon) | TGI (DMS 114 small cell lung) | TGI (XF 498 CNS) | TGI (HOP-18 NSCLC) | further results |
| --- | --- | --- | --- | --- | --- | --- | --- | --- | --- |
| Cn1c(N)nc(=O)c2c1N(C1OC(CO)C(O)C1O)CN2Cc1ccccc1 (stereo not drawn) | > 100 µM | > 100 µM | > 100 µM | > 100 µM | > 100 µM | > 100 µM | > 100 µM | > 100 µM |  |
| CC1=C(/C=C/C(C)=C/C=C/C(C)=C/C(=O)O)C(C)(C)CCC1 | > 100 µM |  | > 100 µM |  | > 100 µM | > 100 µM | > 100 µM | > 100 µM | TGI (MDA-N): > 100 µM |
| Cc1[nH]c(=O)[nH]c1C(=O)c1ccc(-n2ccnc2)cc1 | > 100 µM |  | > 100 µM |  | > 100 µM | > 100 µM |  |  |  |
| CCc1cc(CCC(=O)Nc2ccccc2[N+](=O)[O-])[nH]c(=S)n1 | > 100 µM | > 100 µM | > 100 µM | > 100 µM | > 100 µM | > 100 µM |  | > 100 µM |  |
| N#CC1(C#N)C2C=CC(c3coc4cccc2c34)C1(C#N)C#N (stereo not drawn) | 35.5 µM | 43.1 µM | 21.2 µM |  | 4.17 µM | 9.98 µM | 15.3 µM | 30.4 µM |  |
| C=C(C(=C)N1N=NC2C3CCC(C3)C21)N1N=NC2C3CCC(C3)C21 (stereo not drawn) |  | > 100 µM | > 100 µM | > 100 µM | > 100 µM | > 100 µM | > 100 µM | > 100 µM |  |
| CCOC(=O)c1cnc2c(ccc3ncccc32)c1NCCCN(CC)CC | > 100 µM | > 100 µM | > 100 µM |  | > 100 µM |  | > 100 µM | > 100 µM |  |
| CCCCCCCCCC(=O)OCC1OC(n2cc(F)c(=O)[nH]c2=O)C(NC(=O)OCc2ccccc2)C(OC(=O)CCCCCCCCC)C1O (stereo not drawn) |  |  | > 100 µM |  |  | 49.1 µM |  |  |  |
| CC(C(N)C(=O)NC(C(=O)O)C1OC(n2ccc(=O)[nH]c2=O)C(O)C1O)C(O)c1ccc(O)cn1 (stereo not drawn) |  |  |  |  |  |  |  |  | TGI (MDA-N): > 100 µM |
| CC(C)(C)c1ccc(OCCOCCOc2ccc(C(C)(C)C)cc2S(=O)(=O)Nc2ccc([N+](=O)[O-])cc2)c(S(=O)(=O)Nc2ccc([N+](=O)[O-])cc2)c1 |  | > 100 µM |  | > 100 µM | > 100 µM | > 100 µM |  | > 100 µM |  |
| CC1=C(O)/C(=C/C(C)CCC/C(C)=C/C=C/C(C)CCCc2ccoc2)OC1=O (stereo not drawn) | > 100 µM | > 100 µM | > 100 µM |  | > 100 µM | > 100 µM | 34.6 µM |  |  |
| COc1cc(C2=N/C(=C/c3cccs3)C(=O)O2)cc(OC)c1OC |  |  |  |  |  |  |  |  | TGI (MDA-N): > 100 µM |
| O=C1C2CCN(CC2)C1(CO)CO |  |  |  |  |  |  |  |  | TGI (MDA-N): > 100 µM |
| C=C1CC2CC(O)CC(C1)C2 (stereo not drawn) | > 100 µM | > 100 µM | > 100 µM |  | > 100 µM | > 100 µM | > 100 µM | > 100 µM |  |
| COc1ccc(/C=C2\CCC(CCN(C)C)(C3=CCCC3)C2=O)cc1Br (stereo not drawn) | 3.56 µM | 30.4 µM | 15.8 µM | 31.1 µM | 16.4 µM | 14.9 µM | 8.72 µM | 25.2 µM |  |
| CSc1snc2sc3c(Cl)nnnc3c12 | 30.9 µM | 38.1 µM | 4.85 µM | 38.4 µM | 22.7 µM | 29 µM | 27.4 µM | 33.9 µM |  |

| SMILES | TGI (KM20L2 colon) | TGI (SNB-78 CNS) | TGI (LXFL 529 NSCLC) | TGI (RXF-631 renal) | TGI (DLD-1 colon) | TGI (DMS 114 small cell lung) | TGI (XF 498 CNS) | TGI (HOP-18 NSCLC) | further results |
| --- | --- | --- | --- | --- | --- | --- | --- | --- | --- |
| O=C(N/N=C1\C(=O)N(c2nccs2)C(=O)C(=O)C1c1nc2ccccc2s1)c1ccccc1O (stereo not drawn) | > 100 µM | > 100 µM | > 100 µM |  | > 100 µM | > 100 µM | > 100 µM | 77.4 µM |  |
| CN(Cc1cc(Br)cc(Br)c1O)Cc1c(O)ccc2ccccc12 |  |  |  |  |  |  |  |  | TGI (MDA-N): 39.9 µM |
| C=C1C(OC(=O)/C=C/c2ccccc2)CC(OC(C)=O)C2(C)C1CC1CC(OC(C)=O)C(C)=C(C(OC(C)=O)C2OC(C)=O)C1(C)C (stereo not drawn) | > 100 µM | > 100 µM | > 100 µM | > 100 µM |  | > 100 µM |  | > 100 µM |  |
| COC(=O)C12OCC34C(CC5C(C)C6=CC(=O)OC6=CC5(C)C3C(O)C1O)OC(=O)C(O)C24 (stereo not drawn) | 30.9 µM | 8.31 µM | 0.737 µM and 1.36 µM |  |  | 0.527 µM and 4.35 µM | 0.291 µM and 1.93 µM |  | GI50 (KM20L2 colon): 0.638 µM; GI50 (SNB-78 CNS): 0.402 µM; GI50 (LXFL 529 NSCLC): 0.0379 µM; GI50 (DMS 114 small cell lung): 0.0441 µM; GI50 (XF 498 CNS): 0.0609 µM and 0.344 µM; GI50 (HOP-18 NSCLC): 0.929 µM |
| C/C=C(\CCOS(=O)(=O)c1ccc(C)cc1)[Si](C)(C)C | > 100 µM | > 100 µM | > 100 µM | > 100 µM | > 100 µM | > 100 µM | > 100 µM | > 100 µM |  |
| O=NNc1ccc(Sc2ccc(NN=O)cn2)nc1 |  |  |  |  |  |  |  |  | TGI (MDA-N): > 100 µM |
| CC(=O)O[C@@]1(C)[C@@H](C)C(=O)O[C@@H]2CCN3CC=C(COC(=O)[C@]1(C)O)[C@H]23 | > 100 µM |  | > 100 µM |  | > 100 µM | > 100 µM |  |  |  |
| O=C1OC(=O)C2CCCC3CCCC1C32 (stereo not drawn) |  |  |  |  |  |  |  |  | TGI (MDA-N): > 100 µM |
| O=C1C2C(C(=O)N1c1ccccc1)C1([N+](=O)[O-])C=C3c4ccccc4N(C(=O)c4ccccc4)C32C2C(=O)N(c3ccccc3)C(=O)C21 (stereo not drawn) |  | > 100 µM | > 100 µM | > 100 µM | > 100 µM | > 100 µM | > 100 µM |  |  |
| NC1=NN(c2ccccc2)C(=O)C1C(=O)C(=O)Nc1nccs1 (stereo not drawn) | > 100 µM | > 100 µM | > 100 µM | > 100 µM | > 100 µM | > 100 µM |  | > 100 µM |  |
| Cc1ccc(C(=O)/C=C/c2cccc([N+](=O)[O-])c2)cc1 | > 100 µM | > 100 µM | > 100 µM | > 100 µM | > 85.8 µM | > 80.9 µM |  | > 100 µM |  |
| Cc1cccc(C(C)(C)C)c1NC(=O)CCc1nc(=S)[nH][nH]1 | > 100 µM | > 100 µM | > 100 µM | > 100 µM | > 100 µM | > 100 µM | > 100 µM |  |  |
| CCCCCCCCCCCCCCCCCCOCC(CCP(=O)(CP(=O)(O)O)Oc1ccccc1)OCCCCCCCCCCCCCCCCCC (stereo not drawn) |  |  |  |  |  |  |  |  | TGI (MDA-N): > 100 µM |
| O=C(CC(=O)c1cccc2ccccc12)C(=O)NC1C2CC3CC(C2)CC1C3 (stereo not drawn) | > 100 µM | > 100 µM | > 100 µM | > 100 µM | > 100 µM | > 100 µM | > 100 µM | > 100 µM |  |
| Cc1cccc2c1CCC21OC(=O)c2c1ccc1ccccc21 (stereo not drawn) | > 100 µM |  | > 100 µM | 50.2 µM | > 100 µM | 72.4 µM |  | > 100 µM |  |
| Cc1ccc(NS(=O)(=O)c2cccc(C#N)c2)c2[nH]cc(C#N)c12 |  |  |  |  |  |  |  |  | GI50 (MDA-N): 4.1 µM; TGI (MDA-N): > 91.6 µM |
